Laboratory results from BindingDB's records for doi:10.1016/S0960-894X(96)00274-0 (1996).

What was measured:
[1] = Compound was tested for Inhibition of 9 (1 nM) binding to Opioid receptor delta 1 from bovine striatal Membranes
[2] = Compound was tested for Inhibition of [3H]-DPDPE (0.2 nM) binding to Opioid receptor from bovine striatal Membranes

Question: With `C=C(Cl)C(=O)N[C@@]12CCC(=O)[C@@H]3Oc4c(O)ccc5c4C31CCN(CC1CC1)C2C5` (stereo partly drawn) [1N-[4-cyclopropylmethyl-10-hydroxy-14-oxo-(13R,17S)-12-oxa-4-azapentacyclo[9.6.1.01,13.05,17.07,18]octadeca-7(18),8,10-trien-17-yl]-2-chloroacrylamide] as the compound, how does the IC50 [1] read?
Answer: The IC50 was 177 nM.

Question: And the IC50 [2]?
Answer: Its IC50 is 501 nM.

Question: For `C=C(Cl)C(=O)N[C@@H]1CCC2C3Cc4ccc(O)c5c4C2(CCN3CC2CC2)[C@H]1O5` (stereo partly drawn) [1N-[4-cyclopropylmethyl-10-hydroxy-(13R,14R)-12-oxa-4-azapentacyclo[9.6.1.01,13.05,17.07,18]octadeca-7(18),8,10-trien-14-yl]-2-chloroacrylamide], which IC50 [1] is on record?
Answer: Its IC50 is 0.53 nM.

Question: And the IC50 [2]?
Answer: Its IC50 is 1.5 nM.

Question: With `C=C(Cl)C(=O)N[C@@]12CCC(=O)[C@@H]3Oc4c(O)ccc5c4C31CCN(C)C2C5` (stereo partly drawn) [1N-[10-hydroxy-4-methyl-14-oxo-(13R,17S)-12-oxa-4-azapentacyclo[9.6.1.01,13.05,17.07,18]octadeca-7(18),8,10-trien-17-yl]-2-chloroacrylamide] as the compound, how does the IC50 [1] read?
Answer: The IC50 was 178 nM.

Question: What about the IC50 [2] of the same compound?
Answer: The IC50 was 184 nM.

Question: With `C=C(Cl)C(=O)N[C@@H]1CCC2C3Cc4ccc(O)c5c4C2(CCN3C)[C@H]1O5` (stereo partly drawn) [1N-[10-hydroxy-4-methyl-(13R,14R)-12-oxa-4-azapentacyclo[9.6.1.01,13.05,17.07,18]octadeca-7(18),8,10-trien-14-yl]-2-chloroacrylamide] as the compound, how does the IC50 [1] read?
Answer: The IC50 was 45 nM.

Question: What about the IC50 [2] of the same compound?
Answer: Its IC50 is 26 nM.
